# According to the supplement of paper PMC10307832:
# Experiments:
# Test in all cases: relative viability (nuclei count vs DMSO), 5 days (fraction); higher = more cells survive
# AZD6482 + Palbociclib = compound: Cc1cc([C@@H](C)Nc2ccccc2C(=O)O)c2nc(N3CCOCC3)cc(=O)n2c1 [AZD6482] + CC(=O)c1c(C)c2cnc(Nc3ccc(N4CCNCC4)cn3)nc2n(C2CCCC2)c1=O [Palbociclib] (partner 0.5 µM)
# How it was run: (§1)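 Dosing by pin tool came one day after lung cancer cell lines were seeded in 1536-well plates, using either one drug or a fixed anchor-drug dose plus five library-drug doses (not always all listed) in √10 steps. After 5 days, nuclei were counted on 4× images. Relative viability is treated-well nuclei count divided by vehicle-well nuclei count, and values are medians of duplicate plates.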
# [1] = compound: COc1cc2nc(N3CCCN(C)CC3)nc(NC3CCN(Cc4ccccc4)CC3)c2cc1OC + C[C@]1(O)C[C@@H](c2nc(-c3ccc4ccc(-c5ccccc5)nc4c3)c3c(N)nccn32)C1 [Linsitinib] (partner 1 µM)
# How it was run: as §1
# AZD6482 + Dasatinib = compound: Cc1cc([C@@H](C)Nc2ccccc2C(=O)O)c2nc(N3CCOCC3)cc(=O)n2c1 [AZD6482] + Cc1nc(Nc2ncc(C(=O)Nc3c(C)cccc3Cl)s2)cc(N2CCN(CCO)CC2)n1 [Dasatinib] (partner 0.075 µM)
# How it was run: as §1
# [2] = compound: COc1cc2nc(N3CCCN(C)CC3)nc(NC3CCN(Cc4ccccc4)CC3)c2cc1OC + CC(C)C[C@H](NC(=O)[C@H](Cc1ccccc1)NC(=O)c1cnccn1)B(O)O [Bortezomib] (partner 0.002 µM)
# How it was run: as §1
Cell Line,relative viability (AZD6482 + Palbociclib; first compound 0.08 µM),relative viability (AZD6482 + Palbociclib; first compound 0.253 µM),relative viability (AZD6482 + Palbociclib; first compound 0.8 µM),relative viability (AZD6482 + Palbociclib; first compound 2.53 µM),relative viability (AZD6482 + Palbociclib; first compound 8 µM),relative viability ([1]; first compound 0.2 µM),relative viability ([1]; first compound 0.6325 µM),relative viability ([1]; first compound 2 µM),relative viability ([1]; first compound 6.325 µM),relative viability (AZD6482 + Dasatinib; first compound 0.08 µM),relative viability (AZD6482 + Dasatinib; first compound 0.253 µM),relative viability (AZD6482 + Dasatinib; first compound 0.8 µM),relative viability (AZD6482 + Dasatinib; first compound 2.53 µM),relative viability (AZD6482 + Dasatinib; first compound 8 µM),relative viability ([2]; first compound 0.2 µM),relative viability ([2]; first compound 0.6325 µM),relative viability ([2]; first compound 2 µM),relative viability ([2]; first compound 6.325 µM)
NCI-H1915,0.478,0.524,0.529,0.49,0.521,1.05,1.08,1.12,1.08,0.298,0.289,0.329,0.286,0.296,0.97,0.973,1.02,0.957
NCI-H1975,0.439,0.558,0.623,0.562,0.421,0.989,1.02,1.11,0.905,0.312,0.327,0.389,0.289,0.235,0.371,0.376,0.346,0.413
NCI-H1993,0.503,0.579,0.638,0.495,0.484,0.728,0.723,0.676,0.765,0.514,0.543,0.442,0.348,0.542,1.02,1.37,1.23,1.05
NCI-H2009,0.187,0.176,0.172,0.124,0.119,1.24,1.16,1.24,1.24,0.2,0.232,0.218,0.165,0.183,0.94,0.833,1.08,0.965
NCI-H2023,0.265,0.328,0.405,0.277,0.226,0.767,0.643,0.7,0.405,0.454,0.494,0.566,0.3,0.423,1.02,0.967,1.05,0.329
NCI-H2085,0.408,0.379,0.336,0.273,0.343,0.9,0.917,0.956,0.84,0.203,0.159,0.21,0.198,0.216,1,0.978,0.996,0.912
NCI-H2087,0.235,0.223,0.209,0.185,0.207,0.908,0.706,1.05,0.899,0.722,0.822,0.951,–,0.74,0.868,0.795,0.884,0.675
NCI-H2126,0.356,0.383,0.351,0.314,0.36,0.69,0.707,0.724,0.708,0.542,0.578,0.568,0.284,0.317,1.15,1.09,1.13,1.08
